For one series, the target named is T1, Homo sapiens KMO (HsKMO) (Homo sapiens, UniProt O15229).
T1 construct: GST; made in house
Description: KMO inhibition assay, NADPH oxidation at 340 nm (HsKMO). The series is classed as biochemical. From the text:
(§1) A combination of ligand- and structural-based virtual screening approaches (see supporting information for details) was used to identify an initial library of >1000 compounds that may be suitable as potential KMO inhibitors. These compounds were screened for inhibition of Pseudomonas fluorescens KMO (PfKMO) and Homo sapiens KMO (HsKMO) using high-throughput assays by monitoring the time-dependent oxidation of NADPH at 340 nm[23].
(§2) Small-molecule compounds were supplied by Biofocus (Charles River Laboratories International Inc., MA, USA), which were identified in silico as potential inhibitors (further details are described in the Supplementary Methods). Initial inhibition assays were performed against Pseudomonas fluorescens KMO (PfKMO) and Homo sapiens KMO (HsKMO) by monitoring the time-dependent absorbance change of NADPH at 340 nm. Purified KMO protein (200 nM) was incubated in 100 µL reaction buffer (20 mM potassium phosphate pH 8.0, 7 mM 2-mercaptoethanol) containing 100 μM NADPH, 100 μM L-Kyn and 20 μM potential inhibitors in 96-well plates. […] The inhibitors identified in the initial screens were validated and re-assayed individually in a 1 cm path-length quartz micro cuvette. […] Suppliers for target inhibitor compounds are listed in Supplementary Table 11.
Supplementary Figure 1. Examples of inhibition data used to generate IC50 values for selected KMO inhibitors.
NADPH (100µM) were added into reaction buffer (HsKMO: 20mM potassium phosphate pH 8.0, 7 mM 2-mercaptoethanol; PfKMO: 20 mM HEPES, 10mM sodium acetate, pH 7.5, 2mM DTT). The reaction was initiated by the addition of KMO enzyme (HsKMO: 0.5µM; PfKMO: 0.1 µM). KMO activity was measured in the presence of a range of inhibitor concentrations. […]
(§3) 3.5 Steady-state enzymatic assays.
(§4) Initial screening assays and determination of IC50 values for each potential inhibitor compound were carried out using either 0.1 µM PfKMO or 0.5 µM HsKMO at fixed […]
(§5) (HsKMO: 20 mM potassium phosphate pH 8.0, 7 mM 2-mercaptoethanol; PfKMO:
(§6) 20 mM HEPES, 10 mM sodium acetate, pH 7.5, 2 mM DTT). KMO activity was measured in the presence of a range of inhibitor concentrations by monitoring the […]
consumption of NADPH at 340 nm upon addition of enzyme via a Cary 50 UV-Vis spectrophotometer (Agilent Technologies). Rates were determined from linear regression fits to the initial linear portion of the curves. All measurements were performed in triplicate. The IC50 values for inhibitors were obtained by plotting the percentage inhibition versus the inhibitor concentration and fitting to the Morrison equation16 (equation 1) using Origin 9.0 Software (OriginLab, Northampton, MA).
E + I + K!"" − E + I + K!"" ! − 4[E][I] where v0 is the enzyme activity without inhibitor, vi is the enzyme activity with ligand

For series [1], the target named is T2, Pseudomonas fluorescens KMO (PfKMO) (Pseudomonas fluorescens, UniProt Q84HF5, C252S/C461S).
T2 construct: made in house; host or cells: E. coli BL21 (DE3)
T2 sequence (Q84HF5 whole entry C252S/C461S): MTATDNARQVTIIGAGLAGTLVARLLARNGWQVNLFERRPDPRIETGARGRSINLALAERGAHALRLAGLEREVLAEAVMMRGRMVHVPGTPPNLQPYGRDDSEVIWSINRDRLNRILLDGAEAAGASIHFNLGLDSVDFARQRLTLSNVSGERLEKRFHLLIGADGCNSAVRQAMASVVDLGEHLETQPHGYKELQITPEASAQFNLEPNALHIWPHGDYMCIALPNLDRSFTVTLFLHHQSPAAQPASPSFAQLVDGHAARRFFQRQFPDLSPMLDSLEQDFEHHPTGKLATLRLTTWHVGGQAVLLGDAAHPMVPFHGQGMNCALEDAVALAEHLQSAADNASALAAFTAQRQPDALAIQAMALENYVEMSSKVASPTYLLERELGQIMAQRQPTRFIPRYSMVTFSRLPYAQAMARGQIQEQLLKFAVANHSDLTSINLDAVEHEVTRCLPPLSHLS
In words: biochemical.
Source text: as §1, §2
Supplementary Figure 1. Examples of inhibition data used to generate IC50 values for selected KMO inhibitors. Fixed concentration of L -KYN (200 µM) and NADPH (100µM) were added into reaction buffer (HsKMO: 20mM potassium phosphate pH 8.0, 7 mM 2-mercaptoethanol; PfKMO: 20 mM HEPES, 10mM sodium acetate, pH 7.5, 2mM DTT). The reaction was initiated by the addition of KMO enzyme (HsKMO: 0.5µM; PfKMO: 0.1 µM). KMO activity was measured in the presence of a range of inhibitor concentrations. […]
as §3, §4, §5, §6
consumption of NADPH at 340 nm upon addition of enzyme via a Cary 50 UV-Vis spectrophotometer (Agilent Technologies). Rates were determined from linear regression fits to the initial linear portion of the curves. All measurements were performed in triplicate. The IC50 values for inhibitors were obtained by plotting the percentage inhibition versus the inhibitor concentration and fitting to the Morrison equation16 (equation 1) using Origin 9.0 Software (OriginLab, Northampton, MA). […]

A further series is described as follows: in vitro. The series is classed as in vitro ADME, canine. Conditions: dog; for Papp A→B at 1 h, 10 µM / Papp B→A at 1 h, 10 µM / recovery at 1 h, 10 µM: MDCK. The procedure: (§7) internal standard at each timepoint. […]
(§8) including an analytical internal standard.
(§9) Apparent permeability (Papp) values were determined from the relationship: […]
(§10) Where V is the volume of each Transwell compartment (apical 125 µL, basolateral 600 µL), and concentrations are the relative MS responses for compound (normalized to internal standard) in the donor chamber before incubation and acceptor chamber at the end of the incubation. Area = area of cells exposed for drug transfer (0.33 cm 2).
(§11) Efflux ratios (Papp B>A / Papp A>B) were calculated for each compound from the […]
(§12) MDR1-MDCK cell line has been engineered to overexpress the efflux transporter, MDR1 (P-glycoprotein), and a finding of good permeability B>A, but poor […]
(§13) order to confirm the involvement of MDR1 in any efflux seen, an “ef fective efflux ratio” (EER) was calculated by comparing compound efflux ratios (ER) in the two cell types, i.e. EER = ER (MDR1-MDCK)/ ER (wild-type MDCK). This ratio illustrates the effect of the over-expressed MDR1 normalised for the background movement of compound through the wild-type cells.
(§14) Lucifer Yellow (LY) was added to the apical buffer in all wells to assess viability of the cell layer. As LY cannot freely permeate lipophilic barriers, a high degree of LY […]
(§15) validity of other wells on the plate.
(§16) Compound recovery from the wells was determined from MS responses (normalized to internal standard) in donor and acceptor chambers at the end of incubation compared to response in the donor chamber pre-incubation.

For the next series, the system named is MDR1 (P-glycoprotein). Description: in vitro. The note with it: dog. The series is classed as in vitro ADME, canine. The method, then: as §7, §8, §9, §10, §11, §12, §13, §14, §15, §16
Setting [2] is: pH 7.4, Papp A>B n=1, wild type MDCK.
[3] abbreviates: pH 7.4, Papp A>B n=2, wild type MDCK.
Setting [4] is: pH 7.4, Papp B>A n=1, wild type MDCK.
The mark [5] stands for this setting: pH 7.4, Papp B>A n=2, wild type MDCK.
Where [6] appears, read: pH 7.4, wild type MDCK, read-out: Papp A>B Mean.
The mark [7] stands for this setting: pH 7.4, wild type MDCK, read-out: Papp B>A Mean.
Where [8] appears, read: pH 7.4, wild type MDCK, read-out: Recovery A>B Mean.
Where [9] appears, read: pH 7.4, wild type MDCK, read-out: Recovery A>B n=1.
Where [10] appears, read: pH 7.4, wild type MDCK, read-out: Recovery A>B n=2.
[11] abbreviates: pH 7.4, wild type MDCK, read-out: Recovery B>A Mean.
Setting [12] is: pH 7.4, wild type MDCK, read-out: Recovery B>A n=1.
[13] abbreviates: pH 7.4, wild type MDCK, read-out: Recovery B>A n=2.
The mark [14] stands for this setting: MDCK-MDR1, pH 7.4, MDR1 MDCK, read-out: Papp A>B Mean.
Where [15] appears, read: MDCK-MDR1, pH 7.4, MDR1 MDCK, read-out: Papp B>A Mean.
Setting [16] is: MDCK-MDR1, pH 7.4, MDR1 MDCK, read-out: Recovery A>B Mean.
The mark [17] stands for this setting: MDCK-MDR1, pH 7.4, MDR1 MDCK, read-out: Recovery A>B n=1.
Where [18] appears, read: MDCK-MDR1, pH 7.4, MDR1 MDCK, read-out: Recovery A>B n=2.
[19] abbreviates: MDCK-MDR1, pH 7.4, MDR1 MDCK, read-out: Recovery B>A Mean.
The mark [20] stands for this setting: MDCK-MDR1, pH 7.4, MDR1 MDCK, read-out: Recovery B>A n=1.
[21] abbreviates: MDCK-MDR1, pH 7.4, MDR1 MDCK, read-out: Recovery B>A n=2.
Where [22] appears, read: MDCK-MDR1, pH 7.4, Papp A>B n=1, MDR1 MDCK.
Setting [23] is: MDCK-MDR1, pH 7.4, Papp A>B n=2, MDR1 MDCK.
The mark [24] stands for this setting: MDCK-MDR1, pH 7.4, Papp B>A n=1, MDR1 MDCK.
[25] abbreviates: MDCK-MDR1, pH 7.4, Papp B>A n=2, MDR1 MDCK.

Read-outs that look alike come from different tables or passages of the source.

T1 sequence (O15229 whole entry): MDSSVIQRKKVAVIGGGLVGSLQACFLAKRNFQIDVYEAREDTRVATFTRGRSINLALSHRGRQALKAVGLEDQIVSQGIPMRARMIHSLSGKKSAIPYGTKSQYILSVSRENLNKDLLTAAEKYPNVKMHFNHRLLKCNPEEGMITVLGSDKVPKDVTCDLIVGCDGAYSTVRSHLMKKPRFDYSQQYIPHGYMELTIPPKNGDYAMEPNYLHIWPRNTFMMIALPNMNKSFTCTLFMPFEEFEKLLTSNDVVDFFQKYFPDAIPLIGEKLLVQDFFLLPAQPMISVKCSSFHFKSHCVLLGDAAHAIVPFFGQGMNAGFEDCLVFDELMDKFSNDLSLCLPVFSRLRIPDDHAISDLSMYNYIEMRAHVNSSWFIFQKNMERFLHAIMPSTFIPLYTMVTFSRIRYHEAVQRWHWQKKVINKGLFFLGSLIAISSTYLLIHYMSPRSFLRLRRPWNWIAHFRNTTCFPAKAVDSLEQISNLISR

Take `Cc1cc2c(c(C)c1Cl)N(CC(=O)N(C)C)C(=O)CO2` [1e]: the IC50 (usually the point on the concentration scale where inhibition reaches its midpoint) on Homo sapiens KMO (HsKMO) was approximately 300 µM; in series [1], more than 300 µM.

Regarding `CNC(=O)CN1C(=O)COc2cc(C)c(Cl)c(C)c21` [1f], the IC50 (at Homo sapiens KMO (HsKMO); in series [1]) was more than 300 µM each time.

Turning to `Cc1cc2c(c(C)c1Cl)N(CC(N)=O)C(=O)CO2` [1g], the IC50 (at Homo sapiens KMO (HsKMO); in series [1]) was more than 300 µM in each case.

Turning to `CC(C)NCC(O)COc1cccc2ccccc12` (stereo not shown) [Propranolol, reference compound], the Papp A→B (usually how fast a substance crosses the layer from the apical side) at 1 h, 10 µM in “in vitro” (setting [2]) was determined as 52 ×10⁻⁶ cm/s; in “in vitro” (setting [3]), 57 ×10⁻⁶ cm/s; in the series “in vitro” (setting [6]), 54.5 ×10⁻⁶ cm/s; in the series on MDR1 (P-glycoprotein) (setting [14]) it was 52.5 ×10⁻⁶ cm/s; with MDR1 (P-glycoprotein) (setting [22]), 53 ×10⁻⁶ cm/s; in the series with MDR1 (P-glycoprotein) (setting [23]), 52 ×10⁻⁶ cm/s. Besides, the Papp B→A (usually how fast a substance crosses the layer from the basolateral side) at 1 h, 10 µM is 30 ×10⁻⁶ cm/s in “in vitro” (setting [4]); 31 ×10⁻⁶ cm/s in “in vitro” (setting [5]); 30.5 ×10⁻⁶ cm/s in the series “in vitro” (setting [7]); 38 ×10⁻⁶ cm/s in the series on MDR1 (P-glycoprotein) (setting [15]); 39 ×10⁻⁶ cm/s in the series with MDR1 (P-glycoprotein) (setting [24]); 37 ×10⁻⁶ cm/s in the series on MDR1 (P-glycoprotein) (setting [25]). Besides, the recovery at 1 h, 10 µM in the series “in vitro” (setting [8]) came out at 91%; in “in vitro” (setting [9]) it was 88%; in “in vitro” (setting [10]), 94%; in the series “in vitro” (setting [11]), 80.5%; in “in vitro” (setting [12]), 77%; in “in vitro” (setting [13]) it was 84%. Also, the recovery at 1 h, 10 µM was determined as 92.5% in the series on MDR1 (P-glycoprotein) (setting [16]); 97% in the series with MDR1 (P-glycoprotein) (setting [17]); 88% in the series on MDR1 (P-glycoprotein) (setting [18]); 80.5% in the series with MDR1 (P-glycoprotein) (setting [19]); 83% with MDR1 (P-glycoprotein) (setting [20]); 78% with MDR1 (P-glycoprotein) (setting [21]). Besides, the efflux ratio (in general, the permeability from basolateral to apical divided by that in the opposite direction, in the common usage) at 1 h, 10 µM turned out to be 0.56 in the series “in vitro” (pH 7.4, wild type MDCK, Papp B>A / Papp A>B) and 0.72 with MDR1 (P-glycoprotein) (pH 7.4, MDR1 MDCK, Papp B>A / Papp A>B).

On to `O=C(O)[C@@H]1C[C@H]1C(=O)c1ccc(Cl)c(Cl)c1` [UPF648, reference compound], for which the half-inhibitory concentration (IC50) is 0.06 µM at Homo sapiens KMO (HsKMO) and 0.12 ± 0.03 µM in series [1].

As to `CC[C@]1(O)C[C@@H]2CN(CCc3c([nH]c4ccccc34)[C@@](C(=O)OC)(c3cc4c(cc3OC)N(C)[C@H]3[C@@](O)(C(=O)OC)[C@H](OC(C)=O)[C@]5(CC)C=CCN6CC[C@]43[C@@H]65)C2)C1` [Vinblastine, reference compound], the Papp A→B at 1 h, 10 µM in “in vitro” (setting [2]), in “in vitro” (setting [3]), in “in vitro” (setting [6]), with MDR1 (P-glycoprotein) (setting [14]), in the series with MDR1 (P-glycoprotein) (setting [22]) and in the series on MDR1 (P-glycoprotein) (setting [23]) was less than 1 ×10⁻⁶ cm/s each time. Moreover, the apparent permeability from basolateral to apical (Papp B→A) at 1 h, 10 µM in the series “in vitro” (setting [4]) stood at 3.6 ×10⁻⁶ cm/s; in “in vitro” (setting [5]), 3.9 ×10⁻⁶ cm/s; in “in vitro” (setting [7]), 3.75 ×10⁻⁶ cm/s; with MDR1 (P-glycoprotein) (setting [15]) it was 22 ×10⁻⁶ cm/s; in the series on MDR1 (P-glycoprotein) (setting [24]) it was 24 ×10⁻⁶ cm/s; in the series on MDR1 (P-glycoprotein) (setting [25]), 20 ×10⁻⁶ cm/s. The recovery at 1 h, 10 µM in “in vitro” (setting [8]) was found to be 46.5%; in “in vitro” (setting [9]), 48%; in “in vitro” (setting [10]), 45%; in the series “in vitro” (setting [11]) it was 72.5%; in “in vitro” (setting [12]), 71%; in the series “in vitro” (setting [13]), 74%. The recovery at 1 h, 10 µM is 55% in the series with MDR1 (P-glycoprotein) (setting [16]); 55% in the series with MDR1 (P-glycoprotein) (setting [17]); 55% with MDR1 (P-glycoprotein) (setting [18]); 67.5% with MDR1 (P-glycoprotein) (setting [19]); 71% in the series with MDR1 (P-glycoprotein) (setting [20]); 64% in the series on MDR1 (P-glycoprotein) (setting [21]).
